Where a name gives a salt, the structure may show the parent alone. Read-outs that look alike come from different tables or passages of the source.

Assay [1] has as its target T1, human ADAMTS-4 protease (Homo sapiens, UniProt O75173).
T1 sequence (O75173 213-837): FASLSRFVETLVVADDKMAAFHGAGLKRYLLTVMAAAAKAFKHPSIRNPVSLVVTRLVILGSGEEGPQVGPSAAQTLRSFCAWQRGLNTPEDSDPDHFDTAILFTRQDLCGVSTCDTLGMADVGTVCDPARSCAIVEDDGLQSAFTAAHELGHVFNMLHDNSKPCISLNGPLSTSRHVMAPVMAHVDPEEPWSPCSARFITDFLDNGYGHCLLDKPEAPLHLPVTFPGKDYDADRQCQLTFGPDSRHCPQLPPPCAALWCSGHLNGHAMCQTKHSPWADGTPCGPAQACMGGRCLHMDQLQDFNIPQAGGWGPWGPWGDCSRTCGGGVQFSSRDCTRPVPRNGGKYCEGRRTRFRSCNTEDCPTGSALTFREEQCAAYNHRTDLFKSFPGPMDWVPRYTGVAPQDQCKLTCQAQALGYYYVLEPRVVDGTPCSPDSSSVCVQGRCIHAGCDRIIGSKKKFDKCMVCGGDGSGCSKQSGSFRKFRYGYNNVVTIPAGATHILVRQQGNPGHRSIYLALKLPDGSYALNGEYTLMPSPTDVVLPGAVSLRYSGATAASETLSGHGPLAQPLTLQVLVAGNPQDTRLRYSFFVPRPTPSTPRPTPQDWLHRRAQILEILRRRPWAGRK
Description: Inhibition of ADAMTS-4 activity (rAgg1mut substrate, neo-epitope ELISA). The class given is biochemical. To be noted: recombinant human ADAMTS-4, rAgg1mut substrate. For orientation: In an ELISA, binding on a coated surface is turned into a signal by an enzyme label.

Assay [2] deals with T2, MMP13 (Homo sapiens, UniProt P45452).
T2 construct: purchased Biotrend, Roche, Boehringer Mannheim
Description: Inhibition of MMP 13 activity (fluorimetric peptide substrate cleavage). The format is biochemical. To be noted: recombinant enzyme, APMA activation, pH 7.5 or pH 6.5, fluorimeter.

Assay [3] addresses T3, TNFα-converting enzyme (TACE) (Homo sapiens, UniProt P78536).
T3 construct: purchased R&D Systems
Description: Inhibition of TACE activity (fluorimetric peptide substrate cleavage). The class given is biochemical. The method, then:
The activity of the cyclic urea derivatives of the invention was tested in various in vitro assay systems for inhibitory activity on the proteases ADAMTS-4 and TNFα-converting enzyme (TACE) and on matrix-degrading metalloproteases (MMP13).
The activity in relation to TACE was measured using a commercially available, recombinantly prepared TACE protease (R&D Systems) and the substrate MCA-ProLeuAlaGlnAlaVal-Dpa-ArgSerSerSerArg-NH2 (Bachem).

The subject of assay [4] is primary bovine chondrocytes. Description: Inhibition of proteoglycan liberation from IL1α-stimulated primary bovine chondrocyte cultures. The class given is cell-based. The note with it: Bos taurus, alginate culture, 5 ng/ml human IL1α, 16 hours, dimethylmethylene blue dye test. On the procedure:
The proteoglycan degradation was determined using primary bovine chondrocytes which were isolated from the cartilage of the metacarpophalangeal joint of cattle about 6 months old and cultured in an alginate matrix at 37° C. and 5% CO2 for 3 weeks. Stimulation of ˜160 000 cells with 5 ng/ml human IL1α was followed after 16 hours by determination of the liberated amount of proteoglycan by means of a commercially available dimethylmethylene blue dye test system (Biocolor Ltd.).

Setting [5] is: recombinant TACE (R&D Systems), MCA peptide substrate, fluorimeter, read-out: Inhibition of TACE activity (IC50).

T3 sequence (P78536 215-824): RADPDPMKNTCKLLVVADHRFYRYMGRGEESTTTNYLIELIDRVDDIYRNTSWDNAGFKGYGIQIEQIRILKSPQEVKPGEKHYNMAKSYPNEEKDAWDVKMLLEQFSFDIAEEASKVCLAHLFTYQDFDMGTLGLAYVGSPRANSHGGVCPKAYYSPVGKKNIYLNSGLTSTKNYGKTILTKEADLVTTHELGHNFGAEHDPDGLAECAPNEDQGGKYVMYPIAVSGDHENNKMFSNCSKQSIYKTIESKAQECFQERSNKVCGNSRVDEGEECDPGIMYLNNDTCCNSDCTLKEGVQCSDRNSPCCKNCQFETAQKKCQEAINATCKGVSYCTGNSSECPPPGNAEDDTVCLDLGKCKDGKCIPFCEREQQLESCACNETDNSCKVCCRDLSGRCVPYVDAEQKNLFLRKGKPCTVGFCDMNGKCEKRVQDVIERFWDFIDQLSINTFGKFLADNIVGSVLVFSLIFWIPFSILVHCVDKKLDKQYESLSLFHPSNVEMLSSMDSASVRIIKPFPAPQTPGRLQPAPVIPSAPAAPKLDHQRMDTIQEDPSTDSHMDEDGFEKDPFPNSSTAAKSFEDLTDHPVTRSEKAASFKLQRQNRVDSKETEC

As a reminder, the IC50 is the concentration that inhibits the measured activity by half. “2-(3-Biphenyl-4-ylmethyl-2-oxoimidazolidin-1-yl)-N-hydroxy-3-methylbutyramide [Example 6]”: the half-maximal inhibitory concentration (IC50) in assay [1] was found to be 9.06 µM.
`CC(C)C(C(=O)NO)N1CCN(Cc2ccc(OCc3ccccc3)cc2)C1=O` (stereo not drawn) [Example 1, 2-(3-(4-Benzyloxybenzyl)-2-oxoimidazolidin-1-yl)-N-hydroxy-3-methylbutyramide]: the IC50 in assay [1] was 2.1 µM; in assay [2] it was 5 µM; in assay [3] (setting [5]), 2.47 µM; in assay [4], more than 50 µM.
`CC(C)C(C(=O)NO)N1CCN(c2ccc(OCc3ccccc3)cc2)C1=O` (stereo not drawn) [Example 2, 2-(3-(4-Benzyloxyphenyl)-2-oxoimidazolidin-1-yl)-N-hydroxy-3-methylbutyramide]: the IC50 in assay [1] was found to be 55 µM.
Take `CC(C)C(C(=O)NO)N1CCN(Cc2cccc(OCc3ccccc3)c2)C1=O` (stereo not drawn) [Example 3, 2-(3-(3-Benzyloxybenzyl)-2-oxoimidazolidin-1-yl)-N-hydroxy-3-methylbutyramide]: in assay [3] (setting [5]), the IC50 came out at 2 µM.
For `CC(C)C(C(=O)NO)N1CCN(Cc2ccc(Oc3ccccc3)cc2)C1=O` (stereo not drawn) [Example 4, N-Hydroxy-3-methyl-2-(2-oxo-3-(4-phenoxybenzyl)imidazolidin-1-yl)-butyramide], the IC50 in assay [1] amounted to 1.33 µM; in assay [2], 0.08 µM; in assay [3] (setting [5]), 5 µM.
As to `CC(C)C(C(=O)NO)N1CCN(Cc2ccc(OCc3ccccc3)nc2)C1=O` (stereo not drawn) [Example 5, 2-(3-(6-Benzyloxypyridin-3-ylmethyl)-2-oxoimidazolidin-1-yl)-N-hydroxy-3-methylbutyramide], in assay [1], the IC50 was determined as 10 µM.
Take `COc1ccc(C2CN(Cc3ccccc3)C(=O)N2C(C(=O)NO)C(C)C)cc1` (stereo not drawn) [Example 7, 2-(3-Benzyl-5-(4-methoxyphenyl)-2-oxoimidazolidin-1-yl)-N-hydroxy-3-methylbutyramide]: the values for the IC50 in assay [2] and in assay [3] were 0.01 µM and 9 µM, respectively.
Consider `CC(C)C(C(=O)NO)N1CCN(Cc2cccc(O)c2)C1=O` (stereo not drawn) [Example 9, N-Hydroxy-2-(3-(3-hydroxybenzyl)-2-oxoimidazolidin-1-yl)-3-methylbutyramide], for which the IC50 was 72.4 µM in assay [1] and 3.04 µM in assay [3] (setting [5]).
`CC(C)C(C(=O)NO)N1CCN(Cc2ccc(OCc3ccncc3)cc2)C1=O` (stereo not drawn) [Example 10, N-Hydroxy-3-methyl-2-{2-oxo-3-(4-(pyridin-4-ylmethoxy)benzyl)imidazolidin-1-yl}-butyramide; compound with TFA]: the 50% inhibitory concentration (IC50) in assay [1] is 0.9 µM; in assay [2] it was 4 µM; in assay [3], 1.14 µM; in assay [4] it was more than 50 µM.
As to `CC(C)C(C(=O)NO)N1CCN(Cc2ccc(OCc3cccnc3)cc2)C1=O` (stereo not drawn) [Example 11, N-Hydroxy-3-methyl-2-[2-oxo-3-(4-(pyridin-3-ylmethoxy)benzyl)imidazolidin-1-yl]-butyramide with TFA], the IC50 in assay [1] is 7.8 µM; in assay [2], 5.4 µM; in assay [3] (setting [5]), 3 µM.
Take `CC(C)C(C(=O)NO)N1CCN(Cc2ccc(OCc3ccccn3)cc2)C1=O` (stereo not drawn) [Example 12, N-Hydroxy-3-methyl-2-{2-oxo-3-(4-(pyridin-2-ylmethoxy)benzyl)imidazolidin-1-yl}butyramide with TFA]: the values for the IC50 in assay [1] and in assay [3] (setting [5]) were 7 µM and 8 µM, respectively.
On to `CC#CCOc1ccc(CN2CCN(C(C(=O)NO)C(C)C)C2=O)cc1` (stereo not drawn) [Example 13, 2-(3-(4-But-2-ynyloxybenzyl)-2-oxoimidazolidin-1-yl)-N-hydroxy-3-methylbutyramide], for which the IC50 in assay [3] (setting [5]) came out at 5 µM.
As to `Cc1cc(COc2ccc(CN3CCN(C(C(=O)NO)C(C)C)C3=O)cc2)c2ccccc2n1` (stereo not drawn) [Example 14, N-Hydroxy-3-methyl-2-{3-(4-(2-methylquinolin-4-ylmethoxy)benzyl)-2-oxoimidazolidin-1-yl}butyramide with TFA], the IC50 in assay [1] was 1.14 µM; in assay [3] (setting [5]), 0.01 µM; in assay [4], 12.9 µM.
In the case of `COc1ccc(CC2CN(Cc3ccccc3)C(=O)N2C(C(=O)NO)C(C)C)cc1` (stereo not drawn) [Example 15, 2-(3-Benzyl-5-(4-methoxybenzyl)-2-oxoimidazolidin-1-yl)-N-hydroxy-3-methylbutyramide], the IC50 in assay [1] is 17 µM; in assay [2] it was 0.4 µM; in assay [3] (setting [5]), 8 µM.
Consider `COc1ccc(CC2CN(Cc3ccc(OCc4ccccc4)cc3)C(=O)N2C(C(=O)NO)C(C)C)cc1` (stereo not drawn) [Example 16, 2-(3-(4-Benzyloxybenzyl)-5-(4-methoxybenzyl)-2-oxoimidazolidin-1-yl)-N-hydroxy-3-methylbutyramide], for which the IC50 was found to be 1.39 µM in assay [1], 0.42 µM in assay [2], 3.08 µM in assay [3] (setting [5]) and 25.5 µM in assay [4].
For `COc1ccc(CC2CN(C)C(=O)N2C(C(=O)NO)C(C)C)cc1` (stereo not drawn) [Example 17, N-Hydroxy-2-(5-(4-methoxybenzyl)-3-methyl-2-oxoimidazolidin-1-yl)-3-methylbutyramide], the IC50 in assay [2] worked out at 3.17 µM.
Regarding `CC(C)C(C(=O)NO)N1C(=O)N(Cc2ccc(OCc3ccccc3)cc2)CC1Cc1ccc2c(c1)OCO2` (stereo not drawn) [Example 18, 2-(5-Benzo(1,3)dioxol-5-ylmethyl-3-(4-benzyloxybenzyl)-2-oxoimidazolidin-1-yl)-N-hydroxy-3-methylbutyramide], the IC50 in assay [1] is 3.16 µM; in assay [2], 0.6 µM; in assay [3] (setting [5]), 1.9 µM.
In the case of `CC(C)C(C(=O)NO)N1C(=O)N(Cc2ccccc2)CC1Cc1ccc2c(c1)OCO2` (stereo not drawn) [Example 19, 2-(5-Benzo(1,3)dioxol-5-ylmethyl-3-benzyl-2-oxoimidazolidin-1-yl)-N-hydroxy-3-methylbutyramide], the figures for the 50% inhibitory concentration (IC50) in assay [2] and in assay [3] (setting [5]) were 0.34 µM and 9.29 µM, respectively.
Consider `COc1ccc(CC2CN(Cc3ccc(OCc4ccccc4)cc3)S(=O)(=O)N2C(C(=O)NO)C(C)C)cc1` (stereo not drawn) [Example 20, 2-(5-(4-Benzyloxybenzyl)-3-(4-methoxybenzyl)-1,1-dioxo-(1,2,5)thiadiazolidin-2-yl)-N-hydroxy-3-methylbutyramide], for which the IC50 in assay [2] amounted to 3.58 µM.

Values taken from patent US7652143B2, “Cyclic ureas used as inhibitors of metalloproteases” (sanofi-aventis Deutschland GmbH, priority 2004, dated 2010).
